According to US20170065593A1, “Combination” (Novartis AG, priority 2009, published 2017):
Where two headings read alike, the source gives them in different places.

Columns and labels:
95 cancer cell lines = system: 95 cancer cell lines
Method: (Compound A) or mTOR inhibitor (mTORi, Rapamycin) alone or a combination of both agents at a ratio of 1:2 (MEKi:mTORi) and cell proliferation/death was measured after 3 day drug exposure. Briefly, cells were plated in 384-well plates at 500 cells/well in culture media appropriate for each cell type, supplemented with 10% FBS and 1% penicillin/streptomycin, and incubated overnight at 37° C., 5% CO2. […] (two fold dilutions ranging from 7.3 uM-0.014 nM) or with mTOR inhibitor (two fold dilutions ranging from 14.6 uM-0.112 nM) or in combination with both compounds and incubated for 72 hours. Cell growth was measured using the CellTiterGlo (CTG) reagent (Promega) according to the manufacturer's protocol. Data were analyzed using the XLfit (IDBS Ltd.) curve-fitting tool for Microsoft Excel. Growth IC50 (gIC50) and Ymin values were generated using a four-parameter curve fit algorithm (XLFit algorithm #205).
Results were expressed as a percent of the t=0 and plotted against the compound concentration. The T=0 value is normalized to 100% and represents the number of cells at the time of compound addition. […] Formula below was used to calculate mutually exclusive combination index (CI). Data were reported as log CI, where the logarithm value of CI was calculated.
CI=IC50 of a+b/IC50 of a+IC50 of b+a/IC50 of b
Synergy is defined as CI<1, additivity as CI=1 and antagonism as CI>1. Considering the variability of these proliferation assays we arbitrarily defined log CI>0.1 as antagonism, between −0.1 and 0.1 as no significant effect and <−0.1 as synergy.

[1] = system: A549 lung cancer cell line; assay: Assay 2: cell growth (CellTiterGlo, 72 hours), Ymin; type: cell-based; conditions: percent of T=0 (T=0 = 100%)
Method: FIG. 5 depicts the effect of MEK inhibitor, mTOR inhibitor and their combination on A549 lung cancer cell line growth. […] Cells were treated with MEK inhibitor (two fold dilutions ranging from 7.3 uM-0.014 nM) or with mTOR inhibitor (two fold dilutions ranging from 14.6 uM-0.112 nM) or in combination with both compounds and incubated for 72 hours. Cell growth was measured using the CellTiterGlo (CTG) reagent (Promega) according to the manufacturer's protocol. Data were analyzed using the XLfit (IDBS Ltd.) curve-fitting tool for Microsoft Excel. Growth IC50 (gIC50) and Ymin values were generated using a four-parameter curve fit algorithm (XLFit algorithm #205). Results were expressed as a percent of the t=0 and plotted against the compound concentration. […] Formula below was used to calculate mutually exclusive combination index (CI). Data were reported as log CI, where the logarithm value of CI was calculated. […] Similar analysis was performed for all cell lines and Ymin results are depicted in FIG. 6.

Compound: CO[C@H]1C[C@@H]2CC[C@@H](C)[C@@](O)(O2)C(=O)C(=O)N2CCCC[C@H]2C(=O)O[C@H]([C@H](C)C[C@@H]2CC[C@@H](O)[C@H](OC)C2)CC(=O)[C@H](C)/C=C(\C)[C@@H](O)[C@@H](OC)C(=O)[C@H](C)C[C@H](C)/C=C/C=C/C=C/1C [Rapamycin]
- % of cells with cytotoxic response (95 cancer cell lines; KRAS WT / PI3K WT cell lines): 10%
- % of cells with cytotoxic response (95 cancer cell lines; KRAS WT / PI3K mutant cell lines): 5%
- % of cells with cytotoxic response (95 cancer cell lines; KRAS WT cell lines): 10%
- % of cells with cytotoxic response (95 cancer cell lines; KRAS mutant / PI3K WT cell lines): 11%
- % of cells with cytotoxic response (95 cancer cell lines; KRAS mutant / PI3K mutant cell lines): 6%
- % of cells with cytotoxic response (95 cancer cell lines; KRAS mutant cell lines): 8%
- % of cells with cytotoxic response (95 cancer cell lines; PI3K WT cell lines): 8%
- % of cells with cytotoxic response (95 cancer cell lines; PI3K mutant cell lines): 12%
- percentage of cell undergoing death (cytotoxic) (95 cancer cell lines; all cell lines, Ymin below T=0): 9.5%
- cell lines undergoing death (95 cancer cell lines; single agent, across KRAS and PI3K mutational subgroups): ≤ 11%
- Ymin (lower Y value at any compound concentration) [1]: 487%
